Results taken from patent US6444617B1, “Fused-heterocycle dicarboxylic acid diamide derivatives or salts thereof, herbicide and usage thereof” (Nihon Nohyaku Co., Ltd., priority 1998, dated 2002).

What was measured:
Type in all cases: in vivo
[1] = system: barnyard grass (Echinochloa crus-galli Beauv.); experiment: Test Example 1: herbicidal effect on paddy field weeds before emergence; conditions: Dosage 5 kg/ha
How it was run: (§1)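 Grading reflects percent control relative to untreated plots, evaluated three weeks post-application. Treatment was a soil application of compound solution, predetermined dose, made to paddy-state pots before weed seeds germinated.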

[2] = system: bulrush (Scirpus juncoides Roxb.); experiment: as above; conditions: Dosage 5 kg/ha
How it was run: as §1

[3] = system: barnyard grass (Echinochloa crus-galli Beauv.); experiment: Test Example 2: herbicidal effect on paddy field weeds after emergence; conditions: Dosage 5 kg/ha; one-leaved stage; 21 days after treatment
How it was run: (§2)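 Weeds in flooded paddy-soil pots were grown to the one-leaved stage, then the soil was treated with the compound solution at a set dosage.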

[4] = system: bulrush (Scirpus juncoides Roxb.); experiment: as above; conditions: Dosage 5 kg/ha; one-leaved stage; 21 days after treatment
How it was run: as §2

[5] = system: monochoria (Monochoria vaginalis Presl); experiment: as above; conditions: Dosage 5 kg/ha; one-leaved stage; 21 days after treatment
How it was run: as §2

[6] = system: barnyard grass (Echinochloa crus-galli Beauv.), Ec; experiment: Test Example 3: herbicidal effect on upland weeds before emergence; conditions: dosage 5 kg/ha
How it was run: (§3)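 Read-out is the weed-killing rate, scored fourteen days after a single spray application made before the weeds emerged. The spray was a liquid agent carrying the active compound at a prescribed dose.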

[7] = system: bird's eye speedwell (Veronica persica Poir.), Vp; experiment: as above; conditions: dosage 5 kg/ha
How it was run: as §3

[8] = system: cleavers (Galium aparine L.), Ga; experiment: as above; conditions: dosage 5 kg/ha
How it was run: as §3

[9] = system: cocklebur (Xanthium strumarium L.), Xs; experiment: as above; conditions: dosage 5 kg/ha
How it was run: as §3

[10] = system: forxtail grass (Alopecurus aequalis var. amurensis Ohwi), Am; experiment: as above; conditions: foxtail grass, dosage 5 kg/ha
How it was run: as §3

[11] = system: velvetleaf (Abutilon theophtasti L.), At; experiment: as above; conditions: dosage 5 kg/ha
How it was run: as §3

soybean plant (So) = experiment: Test Example 3: phytotoxicity to upland crop plants, treatment before emergence; conditions: dosage 5 kg/ha
How it was run: (§4)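 Pre-emergence treatment: a liquid preparation containing a prescribed concentration of test compound was sprayed, and injury to soybean and wheat was assessed 14 days later. Phytotoxicity was judged against a scoring criterion, alongside weed-killing rate.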

wheat (Wh) = experiment: as above; conditions: dosage 5 kg/ha
How it was run: as §4

[12] = system: barnyard grass (Echinochloa crus-galli Beauv.), Ec; experiment: Test Example 4: herbicidal effect on upland weeds after emergence; conditions: dosage 5 kg/ha; sprayed after emergence; judged 14 days after treatment
How it was run: (§5)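 Weeds, soybean and wheat were sown in soil-filled vats, covered with soil and grown to set leaf stages before a post-emergence spray of an agent containing the compound at a prescribed concentration. Weed-killing rate and crop phytotoxicity were assessed 14 days after treatment.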

[13] = system: bird's eye speedwell (Veronica persica Poir.), Vp; experiment: as above; conditions: dosage 5 kg/ha; sprayed after emergence; judged 14 days after treatment
How it was run: as §5

[14] = system: cleavers (Galium aparine L.), Ga; experiment: as above; conditions: dosage 5 kg/ha; sprayed after emergence; judged 14 days after treatment
How it was run: as §5

[15] = system: cocklebur (Xanthium strumarium L.), Xs; experiment: as above; conditions: dosage 5 kg/ha; sprayed after emergence; judged 14 days after treatment
How it was run: as §5

[16] = system: forxtail grass (Alopecurus aequalis var. amurensis Ohwi), Am; experiment: as above; conditions: dosage 5 kg/ha; sprayed after emergence; judged 14 days after treatment
How it was run: as §5

[17] = system: velvetleaf (Abutilon theophtasti L.), At; experiment: as above; conditions: dosage 5 kg/ha; sprayed after emergence; judged 14 days after treatment
How it was run: as §5

soybean plant = experiment: Test Example 4: phytotoxicity to upland crop plants, treatment after emergence; conditions: dosage 5 kg/ha, sprayed after emergence, judged 14 days after treatment
How it was run: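 Weeds and soybean grown in soil-filled vats to set leaf stages, then sprayed post-emergence with the compound at a prescribed concentration. Weed-killing rate and crop phytotoxicity judged 14 days after treatment.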

wheat = experiment: as above; conditions: dosage 5 kg/ha, sprayed after emergence, judged 14 days after treatment
How it was run: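 Post-emergence foliar spray, compound at prescribed concentration, applied at defined leaf stages; weeds plus soybean/wheat grown in soil vats. Read-out: weed-killing rate and crop injury, 14 d post-treatment.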

Structure (SMILES) | Pre-emergence treatment Barnyard grass (herbicidal effect) [1] | Pre-emergence treatment Bulrush (herbicidal effect) [2] | Post-emergence treatment Barnyard grass (herbicidal effect) [3] | Post-emergence treatment Bulrush (herbicidal effect) [4] | Post-emergence treatment Monochoria (herbicidal effect) [5] | Herbicidal effect Ec [6] | Herbicidal effect Vp [7] | Herbicidal effect Ga [8] | Herbicidal effect Xs [9] | Herbicidal effect Am [10] | Herbicidal effect At [11] | Phytotoxicity So (soybean plant (So)) | Phytotoxicity Wh (wheat (Wh)) | Herbicidal effect Ec [12] | Herbicidal effect Vp [13] | Herbicidal effect Ga [14] | Herbicidal effect Xs [15] | Herbicidal effect Am [16] | Herbicidal effect At [17] | Phytotoxicity So (soybean plant) | further results
CCCNC(=O)c1nc2cc3c(cc2cc1C(=O)Nc1c(CC)ccc(Cl)c1CC)OCO3 [compound 334] | 5 (Weed-killing rate is 100%.) | 4 (Weed-killing rate is 90-99%.) | 4 (Weed-killing rate is 90-99%.) | 4 (Weed-killing rate is 90-99%.) | 5 (Weed-killing rate is 100%.) | 4 (Weed-killing rate is 90-99%.) | 4 (Weed-killing rate is 90-99%.) | 3 (Weed-killing rate is 70-89%.) | 3 (Weed-killing rate is 70-89%.) | 4 (Weed-killing rate is 90-99%.) | 5 (Weed-killing rate is 100%.) | 0 (Crop-killing rate is 0-20% (No Phytotoxicity).) | 2 (Crop-killing rate is 40-69%.) | 4 (Weed-killing rate is 90-99%.) | 4 (Weed-killing rate is 90-99%.) | 3 (Weed-killing rate is 70-89%.) | 3 (Weed-killing rate is 70-89%.) | 3 (Weed-killing rate is 70-89%.) | 4 (Weed-killing rate is 90-99%.) | 1 (Crop-killing rate is 1-39%.) | Phytotoxicity Wh (wheat): 2 (Crop-killing rate is 40-69%.)
CCCNC(=O)c1nc2c(cc1C(=O)Nc1c(CC)ccc(Cl)c1CC)ncn2C [compound 1269] | 5 (Weed-killing rate is 100%.) | 5 (Weed-killing rate is 100%.) | 5 (Weed-killing rate is 100%.) | 5 (Weed-killing rate is 100%.) | 5 (Weed-killing rate is 100%.) | 5 (Weed-killing rate is 100%.) | 5 (Weed-killing rate is 100%.) | 5 (Weed-killing rate is 100%.) | 5 (Weed-killing rate is 100%.) | 5 (Weed-killing rate is 100%.) | 5 (Weed-killing rate is 100%.) | 4 (Crop-killing rate is 90-99%.) | 5 (Crop-killing rate is 100%.) | 5 (Weed-killing rate is 100%.) | 5 (Weed-killing rate is 100%.) | 5 (Weed-killing rate is 100%.) | 5 (Weed-killing rate is 100%.) | 5 (Weed-killing rate is 100%.) | 5 (Weed-killing rate is 100%.) | 4 (Crop-killing rate is 90-99%.) | Phytotoxicity Wh (wheat): 5 (Crop-killing rate is 100%.)
CCCNC(=O)c1nc2ocnc2cc1C(=O)Nc1c(CC)ccc(Cl)c1CC [compound 1245] | 5 (Weed-killing rate is 100%.) | 5 (Weed-killing rate is 100%.) | 5 (Weed-killing rate is 100%.) | 5 (Weed-killing rate is 100%.) | 5 (Weed-killing rate is 100%.) | 5 (Weed-killing rate is 100%.) | 5 (Weed-killing rate is 100%.) | 5 (Weed-killing rate is 100%.) | 5 (Weed-killing rate is 100%.) | 5 (Weed-killing rate is 100%.) | 5 (Weed-killing rate is 100%.) | 5 (Crop-killing rate is 100%.) | 5 (Crop-killing rate is 100%.) | 5 (Weed-killing rate is 100%.) | 5 (Weed-killing rate is 100%.) | 5 (Weed-killing rate is 100%.) | 5 (Weed-killing rate is 100%.) | 5 (Weed-killing rate is 100%.) | 5 (Weed-killing rate is 100%.) | 5 (Crop-killing rate is 100%.) | Phytotoxicity Wh (wheat): 5 (Crop-killing rate is 100%.)
CCc1ccc(Cl)c(CC)c1NC(=O)c1cc2cc3c(cc2nc1C(=O)NCC(C)C)OCO3 [compound 339] | 4 (Weed-killing rate is 90-99%.) | 3 (Weed-killing rate is 70-89%.) | 3 (Weed-killing rate is 70-89%.) | 2 (Weed-killing rate is 40-69%.) | 4 (Weed-killing rate is 90-99%.) | 4 (Weed-killing rate is 90-99%.) | 4 (Weed-killing rate is 90-99%.) | 3 (Weed-killing rate is 70-89%.) | 2 (Weed-killing rate is 40-69%.) | 4 (Weed-killing rate is 90-99%.) | 4 (Weed-killing rate is 90-99%.) | 0 (Crop-killing rate is 0-20% (No Phytotoxicity).) | 1 (Crop-killing rate is 1-39%.) | 4 (Weed-killing rate is 90-99%.) | 4 (Weed-killing rate is 90-99%.) | 2 (Weed-killing rate is 40-69%.) | 2 (Weed-killing rate is 40-69%.) | 3 (Weed-killing rate is 70-89%.) | 4 (Weed-killing rate is 90-99%.) | 1 (Crop-killing rate is 1-39%.) | Phytotoxicity Wh (wheat): 2 (Crop-killing rate is 40-69%.)
